Assays:
Heme-containing sGC = molecular target: T1, Heme-containing sGC (Rattus norvegicus, UniProt P20595); assay: Stimulation of recombinant soluble guanylate cyclase (sGC) in vitro, heme-containing enzyme; type: biochemical; details: for Stimulation (n-fold), heme-containing sGC, DEA/NO alone: Ex. 6 0 μM
T1 construct: made in house; host or cells: Sf9 insect cells (baculovirus)
T1 sequence (P20595 1-619): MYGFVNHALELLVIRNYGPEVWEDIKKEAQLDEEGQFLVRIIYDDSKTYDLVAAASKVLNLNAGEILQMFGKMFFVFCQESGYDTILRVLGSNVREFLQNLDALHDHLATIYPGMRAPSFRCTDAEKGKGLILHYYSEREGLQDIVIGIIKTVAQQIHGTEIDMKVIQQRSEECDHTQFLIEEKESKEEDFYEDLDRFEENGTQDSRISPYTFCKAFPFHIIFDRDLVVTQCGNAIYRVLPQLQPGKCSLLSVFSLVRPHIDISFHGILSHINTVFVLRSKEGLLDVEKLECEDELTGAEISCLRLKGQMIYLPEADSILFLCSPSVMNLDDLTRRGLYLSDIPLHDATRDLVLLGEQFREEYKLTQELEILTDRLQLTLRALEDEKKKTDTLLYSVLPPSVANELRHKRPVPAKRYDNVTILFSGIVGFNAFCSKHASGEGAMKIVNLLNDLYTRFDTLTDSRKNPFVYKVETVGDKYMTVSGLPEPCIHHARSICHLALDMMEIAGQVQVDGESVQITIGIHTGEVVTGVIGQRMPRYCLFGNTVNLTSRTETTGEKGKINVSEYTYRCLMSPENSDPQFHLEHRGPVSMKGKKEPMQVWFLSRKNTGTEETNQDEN
T1 sequence (P19686 1-690 partner): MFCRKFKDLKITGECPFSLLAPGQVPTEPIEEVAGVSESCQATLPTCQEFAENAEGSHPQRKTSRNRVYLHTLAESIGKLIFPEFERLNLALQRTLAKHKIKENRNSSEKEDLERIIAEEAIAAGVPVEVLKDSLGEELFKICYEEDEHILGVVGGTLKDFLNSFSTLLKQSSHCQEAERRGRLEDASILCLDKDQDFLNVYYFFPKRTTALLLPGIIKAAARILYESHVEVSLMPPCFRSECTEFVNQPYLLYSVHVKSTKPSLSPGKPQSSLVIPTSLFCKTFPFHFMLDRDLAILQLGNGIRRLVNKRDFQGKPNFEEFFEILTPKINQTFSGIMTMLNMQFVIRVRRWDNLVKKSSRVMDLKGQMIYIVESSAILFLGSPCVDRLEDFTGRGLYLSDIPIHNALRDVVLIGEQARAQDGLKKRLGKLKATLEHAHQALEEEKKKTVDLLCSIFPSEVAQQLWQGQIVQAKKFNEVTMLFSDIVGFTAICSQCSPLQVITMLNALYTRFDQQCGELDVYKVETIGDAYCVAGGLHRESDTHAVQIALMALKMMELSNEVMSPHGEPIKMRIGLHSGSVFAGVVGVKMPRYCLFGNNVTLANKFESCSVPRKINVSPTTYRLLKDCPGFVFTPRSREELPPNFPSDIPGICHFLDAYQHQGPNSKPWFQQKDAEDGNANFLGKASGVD
Experimental: The investigations of the stimulation of recombinant soluble guanylate cyclase (sGC) […] heme-dependent sGC inhibitor 1H-1,2,4-oxadiazole-(4,3a)-quinoxalin-1-one (ODQ) were carried out according to the method described in detail in the following literature reference: M. Hoenicka, E. M. Becker, H. Apeler, T. Sirichoke, H. Schroeder, R. Gerzer and J.-P. Stasch: Purified soluble guanylyl cyclase expressed in a baculovirus/Sf9 system: stimulation by YC-1, nitric oxide, and carbon oxide. J. Mol. Med. 77 (1999): 14-23.
(§1) Activation of sGC by a test substance is stated as n-fold stimulation of basal activity.

arteria saphena rings = assay: Vasorelaxant effect in vitro (phenylephrine-contracted arteria saphena rings); type: cell-based, Rabbits; details: Oryctolagus cuniculus; rabbit arteria saphena rings, phenylephrine contraction
Experimental: Rabbits are anesthetized or killed by intravenous injection of thiopental sodium (about 50 mg/kg) and exsanguinated. The arteria saphena is removed and divided into rings 3 mm wide. The individual rings are in each case mounted on a pair of hooks of triangular shape, open at the ends and made of special wire (Remanium®) having a diameter of 0.3 mm. Under pretension, each ring is introduced into a 5 ml organ bath containing carbogen-gassed Krebs-Henseleit solution at 37° C. with the following composition (mM): NaCl: 119; KCl: 4.8; CaCl2×2H2O: 1; MgSO4×7H2O: 1.4; KH2PO4: 1.2; NaHCO3: 25; glucose: 10; bovine serum albumin: 0.001%. The force of contraction is detected with Statham UC2 cells, amplified and digitized via A/D converters (DAS-1802 HC, Keithley Instruments, Munich) and recorded in parallel on chart recorders. Contractions are generated by adding phenylephrine.
After several (generally 4) control cycles, the substance to be investigated is added in each further run in increasing dosage, and the height of the contraction reached under the influence of the test substance is compared with the height of the contraction reached in the last preceding run. The concentration necessary to reduce the height of the control value by 50% (IC50) is calculated from this. The standard application volume is 5 μl. The DMSO content in the bath solution corresponds to 0. 1%.

Heme-free sGC = molecular target: T2, Heme-free sGC (Rattus norvegicus, UniProt P20595); assay: Stimulation of recombinant soluble guanylate cyclase (sGC) in vitro, heme-free enzyme; type: biochemical
T2 construct: made in house; host or cells: Sf9 insect cells (baculovirus)
T2 sequence (P20595 1-619): T1 sequence (P20595 1-619)
T2 sequence (P19686 1-690 partner): T1 sequence (P19686 1-690 partner)
Experimental: The investigations of the stimulation of recombinant soluble guanylate cyclase (sGC) and the compounds according to the invention with and without sodium nitroprusside and with and without the heme-dependent sGC inhibitor 1H-1,2,4-oxadiazole-(4,3a)-quinoxalin-1-one (ODQ) were carried out according to the method described in detail in the following literature reference: M. Hoenicka, E. M. Becker, H. Apeler, T. Sirichoke, H. Schroeder, R. Gerzer and J.-P. Stasch: Purified soluble guanylyl cyclase expressed in a baculovirus/Sf9 system: stimulation by YC-1, nitric oxide, and carbon oxide. J. Mol. Med. 77 (1999): 14-23.
The heme-free guanylate cyclase was obtained by adding Tween 20 to the sample buffer (final concentration 0.5%).
as §1

[1] = test system: porcine serum-induced rat liver fibrosis; assay: Antifibrotic action in vivo, porcine serum-induced rat liver fibrosis; parameters: species or system Female Sprague Dawley rats; details: seven weeks
Source text: The antifibrotic action of the substances was investigated using the model of the porcine serum-induced rat liver fibrosis. Treatment with heterologous serum, for example porcine serum in rats, is a method frequently used in the literature for inducing fibrosis of the liver with subsequent cirrhosis which, in contrast to other models, causes only minimal damage and inflammation of the parenchyma cells of the liver (Bhunchet, E. and Wake, K. (1992): Role of mesenchymal cell populations in porcine serum-induced rat liver fibrosis. Hepatology 16: 1452-1473). […] After seven weeks of treatment, the animals were killed and the livers were removed in order to quantify the collagen content. […]
Fast Green was used as counterstain to enhance contrasts. In each section, the extent of liver fibrosis was determined as a percentage of the area stained by Pikrosirius Red of the total area measured. […] 64 fields of a standardized grid of 31 mm^2 were measured using a final amplification of 100. […]
To determine OH-proline according to Prockop and Udenfried (Prockop, D. J. and Udenfried, S. A. (1960): A specific method for the analysis of hydroxyproline in tissues and urine. Anal. Biochem. 1: 228-239), in each case 50-100 mg of liver tissue were dried and boiled with 6N HCl for about 17 hours. […] After 3 hours of incubation at 35° C., absorption at 573 nm was measured. […]

CCN(CC)[N+]([O-])=NO [DEA/NO, 2-(N,N-diethylamino)diazenolate 2-oxide, reference compound]
Stimulation (n-fold), heme-containing sGC, DEA/NO alone (Heme-containing sGC; DEA/NO 0.001 μM): 5 n-fold
Stimulation (n-fold), heme-containing sGC, DEA/NO alone (Heme-containing sGC; DEA/NO 0.01 μM): 30 n-fold
Stimulation (n-fold), heme-containing sGC, DEA/NO alone (Heme-containing sGC; DEA/NO 0.1 μM): 124 n-fold

O=C(O)CCCCN(CCc1ccccc1OCc1ccc(C2=CCCCC2)cc1Cl)Cc1ccc(C(=O)O)cc1 [Example 9]
IC50 (arteria saphena rings): 1.8 nM

O=C(O)CCCCN(CCc1ccccc1OCc1ccc(-c2ccc(C(F)(F)F)cc2)cc1Cl)Cc1ccc(C(=O)O)cc1 [Example 6]
IC50 (arteria saphena rings): 0.17 nM
Stimulation (n-fold), heme-containing sGC, basal (Heme-containing sGC; Ex. 6 0.001 μM): 2 n-fold
Stimulation (n-fold), heme-containing sGC, + DEA/NO (0.001 μM) (Heme-containing sGC; Ex. 6 0.001 μM + DEA/NO 0.001 μM): 6 n-fold
Stimulation (n-fold), heme-containing sGC, + DEA/NO (0.01 μM) (Heme-containing sGC; Ex. 6 0.001 μM + DEA/NO 0.01 μM): 32 n-fold
Stimulation (n-fold), heme-containing sGC, + DEA/NO (0.1 μM) (Heme-containing sGC; Ex. 6 0.001 μM + DEA/NO 0.1 μM): 127 n-fold
Stimulation (n-fold), heme-containing sGC, + ODQ (10 μM) (Heme-containing sGC; Ex. 6 0.001 μM + ODQ 10 μM): 35 n-fold
Stimulation (n-fold), heme-containing sGC, basal (Heme-containing sGC; Ex. 6 0.01 μM): 9 n-fold
Stimulation (n-fold), heme-containing sGC, + DEA/NO (0.001 μM) (Heme-containing sGC; Ex. 6 0.01 μM + DEA/NO 0.001 μM): 13 n-fold
Stimulation (n-fold), heme-containing sGC, + DEA/NO (0.01 μM) (Heme-containing sGC; Ex. 6 0.01 μM + DEA/NO 0.01 μM): 39 n-fold
Stimulation (n-fold), heme-containing sGC, + DEA/NO (0.1 μM) (Heme-containing sGC; Ex. 6 0.01 μM + DEA/NO 0.1 μM): 134 n-fold
Stimulation (n-fold), heme-containing sGC, + ODQ (10 μM) (Heme-containing sGC; Ex. 6 0.01 μM + ODQ 10 μM): 95 n-fold
Stimulation (n-fold), heme-containing sGC, basal (Heme-containing sGC; Ex. 6 0.1 μM): 18 n-fold
Stimulation (n-fold), heme-containing sGC, + DEA/NO (0.001 μM) (Heme-containing sGC; Ex. 6 0.1 μM + DEA/NO 0.001 μM): 25 n-fold
Stimulation (n-fold), heme-containing sGC, + DEA/NO (0.01 μM) (Heme-containing sGC; Ex. 6 0.1 μM + DEA/NO 0.01 μM): 52 n-fold
Stimulation (n-fold), heme-containing sGC, + DEA/NO (0.1 μM) (Heme-containing sGC; Ex. 6 0.1 μM + DEA/NO 0.1 μM): 157 n-fold
Stimulation (n-fold), heme-containing sGC, + ODQ (10 μM) (Heme-containing sGC; Ex. 6 0.1 μM + ODQ 10 μM): 147 n-fold
Stimulation (n-fold), heme-containing sGC, basal (Heme-containing sGC; Ex. 6 1.0 μM): 23 n-fold
Stimulation (n-fold), heme-containing sGC, + DEA/NO (0.001 μM) (Heme-containing sGC; Ex. 6 1.0 μM + DEA/NO 0.001 μM): 30 n-fold
Stimulation (n-fold), heme-containing sGC, + DEA/NO (0.01 μM) (Heme-containing sGC; Ex. 6 1.0 μM + DEA/NO 0.01 μM): 53 n-fold
Stimulation (n-fold), heme-containing sGC, + DEA/NO (0.1 μM) (Heme-containing sGC; Ex. 6 1.0 μM + DEA/NO 0.1 μM): 151 n-fold
Stimulation (n-fold), heme-containing sGC, + ODQ (10 μM) (Heme-containing sGC; Ex. 6 1.0 μM + ODQ 10 μM): 150 n-fold
Stimulation (n-fold), heme-containing sGC, basal (Heme-containing sGC; Ex. 6 10 μM): 25 n-fold
Stimulation (n-fold), heme-containing sGC, + DEA/NO (0.001 μM) (Heme-containing sGC; Ex. 6 10 μM + DEA/NO 0.001 μM): 30 n-fold
Stimulation (n-fold), heme-containing sGC, + DEA/NO (0.01 μM) (Heme-containing sGC; Ex. 6 10 μM + DEA/NO 0.01 μM): 67 n-fold
Stimulation (n-fold), heme-containing sGC, + DEA/NO (0.1 μM) (Heme-containing sGC; Ex. 6 10 μM + DEA/NO 0.1 μM): 174 n-fold
Stimulation (n-fold), heme-containing sGC, + ODQ (10 μM) (Heme-containing sGC; Ex. 6 10 μM + ODQ 10 μM): 159 n-fold
Stimulation (n-fold), heme-free sGC, basal (Heme-free sGC; Ex. 6 0.001 μM): 10 n-fold
Stimulation (n-fold), heme-free sGC, + ODQ (10 μM) (Heme-free sGC; Ex. 6 0.001 μM + ODQ 10 μM): 25 n-fold
Stimulation (n-fold), heme-free sGC, basal (Heme-free sGC; Ex. 6 0.01 μM): 55 n-fold
Stimulation (n-fold), heme-free sGC, + ODQ (10 μM) (Heme-free sGC; Ex. 6 0.01 μM + ODQ 10 μM): 61 n-fold
Stimulation (n-fold), heme-free sGC, basal (Heme-free sGC; Ex. 6 0.1 μM): 81 n-fold
Stimulation (n-fold), heme-free sGC, + ODQ (10 μM) (Heme-free sGC; Ex. 6 0.1 μM + ODQ 10 μM): 79 n-fold
Stimulation (n-fold), heme-free sGC, basal (Heme-free sGC; Ex. 6 1.0 μM): 83 n-fold
Stimulation (n-fold), heme-free sGC, + ODQ (10 μM) (Heme-free sGC; Ex. 6 1.0 μM + ODQ 10 μM): 83 n-fold
Stimulation (n-fold), heme-free sGC, basal (Heme-free sGC; Ex. 6 10 μM): 84 n-fold
Stimulation (n-fold), heme-free sGC, + ODQ (10 μM) (Heme-free sGC; Ex. 6 10 μM + ODQ 10 μM): 83 n-fold
Reduction of collagen deposits in the liver (OH-proline, morphometric fibrosis measurement) ([1]; 0.03 mg/kg p.o. o.d.): about a half
Reduction of collagen deposits in the liver (OH-proline, morphometric fibrosis measurement) ([1]; 0.1 mg/kg p.o. o.d.): about a half

O=C(O)CCCCN(CCc1ccccc1OCc1ccc(C2CCCCC2)cc1Cl)Cc1ccc(C(=O)O)cc1 [Example 12]
IC50 (arteria saphena rings): 2 nM

CC(C)(C)c1ccc(-c2ccc(COc3ccccc3CCN(CCCCC(=O)O)Cc3ccc(C(=O)O)cc3)c(F)c2)cc1 [Example 2]
IC50 (arteria saphena rings): 0.15 nM

Reference: patent publication US6939989B2, “Side-chain halogenated amino dicarboxylic acid derivatives as medicaments for treating cardiovascular diseases” (Bayer Aktiengesellschaft, priority 2001, dated 2005)
